Results published in PubChem BioAssay AID272 (DTP/NCI, 2004).
“And” between values parts separate entries of the source, which are not always exact repeats. Equal entries are not always repeated. Inconclusive results are not listed. Residues, ends and D or L forms follow the SMILES beside them. *: point of attachment. Trt = c1ccc(C(c2ccccc2)(c2ccccc2)*)cc1; Bn = c1ccc(C*)cc1

Tested on: Lewis lung carcinoma i.m., BDF1 mice, T/C %
Experiment: NCI In Vivo Anticancer Drug Screen. Data for tumor model Lewis Lung Carcinoma (intramuscular) in B6D2F1 (BDF1) mice
Method in brief: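 Tumour-bearing mice were dosed with compound, and either their survival or their tumour size was measured. Results were expressed relative to vehicle-treated controls as T/C.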

[1] = endpoint: mean tumor weight, dose: 1.0 mg/kg/injection, schedule: Q01DX011 (ip), vehicle: saline, higher = larger tumour
[2] = endpoint: median survival time, dose: 2.0 mg/kg/injection, schedule: Q01DX011 (ip), vehicle: saline, higher = longer survival

SMILES: Nc1nc(=S)c2ncn(C3CC(O)C(CO)O3)c2[nH]1 (stereo not given)
- T/C (endpoint: mean tumor weight, dose: 3.12 mg/kg/injection, schedule: Q01DX011 (ip), vehicle: other, higher = larger tumour): 120 % of control
- T/C (endpoint: mean tumor weight, dose: 6.25 mg/kg/injection, schedule: Q01DX011 (ip), vehicle: other, higher = larger tumour): 112 % of control
- T/C (endpoint: mean tumor weight, dose: 12.5 mg/kg/injection, schedule: Q01DX011 (ip), vehicle: other, higher = larger tumour): 120 % of control
- T/C (endpoint: mean tumor weight, dose: 25.0 mg/kg/injection, schedule: Q01DX011 (ip), vehicle: other, higher = larger tumour): 69 % of control
- T/C (endpoint: median survival time, dose: 1.56 mg/kg/injection, schedule: Q01DX011 (ip), vehicle: other, higher = longer survival): 112 % of control
- T/C (endpoint: median survival time, dose: 3.12 mg/kg/injection, schedule: Q01DX011 (ip), vehicle: other, higher = longer survival): 95 % of control
- T/C (endpoint: median survival time, dose: 6.25 mg/kg/injection, schedule: Q01DX011 (ip), vehicle: other, higher = longer survival): 102 % of control
- T/C (endpoint: median survival time, dose: 12.5 mg/kg/injection, schedule: Q01DX011 (ip), vehicle: other, higher = longer survival): 112 % of control
- T/C (endpoint: median survival time, dose: 25.0 mg/kg/injection, schedule: Q01DX011 (ip), vehicle: other, higher = longer survival): 112 % of control

SMILES: CC1OC(O[C@@H]2C=C3CC[C@@H]4[C@H](CC[C@]5(C)[C@@H](c6ccc(=O)oc6)CC[C@]45O)[C@@]3(C)CC2)C(O)C(O)C1O (stereo not given in full)
- T/C (endpoint: mean tumor weight, dose: 0.31 mg/kg/injection, schedule: Q01DX011 (ip), vehicle: steriod suspending solution, higher = larger tumour): 92 % of control
- T/C (endpoint: mean tumor weight, dose: 0.62 mg/kg/injection, schedule: Q01DX011 (ip), vehicle: steriod suspending solution, higher = larger tumour): 114 % of control
- T/C (endpoint: mean tumor weight, dose: 1.25 mg/kg/injection, schedule: Q01DX011 (ip), vehicle: steriod suspending solution, higher = larger tumour): 36 % of control
- T/C (endpoint: mean tumor weight, dose: 2.5 mg/kg/injection, schedule: Q01DX011 (ip), vehicle: steriod suspending solution, higher = larger tumour): 50 % of control
- T/C (endpoint: median survival time, dose: 0.31 mg/kg/injection, schedule: Q01DX011 (ip), vehicle: steriod suspending solution, higher = longer survival): 122 % of control
- T/C (endpoint: median survival time, dose: 1.25 mg/kg/injection, schedule: Q01DX011 (ip), vehicle: steriod suspending solution, higher = longer survival): 113 % of control
- T/C (endpoint: median survival time, dose: 2.5 mg/kg/injection, schedule: Q01DX011 (ip), vehicle: steriod suspending solution, higher = longer survival): 119 % of control

SMILES: CSc1ncnc2c1ncn2C1OC(CO)C(O)C1O (stereo not given)
- T/C (endpoint: mean tumor weight, dose: 3.75 mg/kg/injection, schedule: Q01DX011 (ip), vehicle: saline, higher = larger tumour): 86 % of control
- T/C (endpoint: mean tumor weight, dose: 7.5 mg/kg/injection, schedule: Q01DX011 (ip), vehicle: saline, higher = larger tumour): 63 % of control
- T/C (endpoint: median survival time, dose: 3.75 mg/kg/injection, schedule: Q01DX011 (ip), vehicle: saline, higher = longer survival): 100 % of control
- T/C (endpoint: median survival time, dose: 7.5 mg/kg/injection, schedule: Q01DX011 (ip), vehicle: saline, higher = longer survival): 90 % of control

SMILES: OC(CBr)C(O)C(O)C(O)CBr (stereo not given)
- T/C (endpoint: mean tumor weight (est.), dose: 50.0 mg/kg/injection, schedule: Q01DX011 (ip), vehicle: Klucel (hydroxypropylcellulose) (HPC), higher = larger tumour): 61 % of control
- T/C (endpoint: mean tumor weight (est.), dose: 100.0 mg/kg/injection, schedule: Q01DX011 (ip), vehicle: Klucel (hydroxypropylcellulose) (HPC), higher = larger tumour): 59 % of control
- T/C (endpoint: mean tumor weight (est.), dose: 200.0 mg/kg/injection, schedule: Q01DX011 (ip), vehicle: Klucel (hydroxypropylcellulose) (HPC), higher = larger tumour): 44 % of control
- T/C (endpoint: mean tumor weight, dose: 25.0 mg/kg/injection, schedule: Q01DX011 (ip), vehicle: Klucel (hydroxypropylcellulose) (HPC), higher = larger tumour): 85 % of control
- T/C (endpoint: mean tumor weight, dose: 50.0 mg/kg/injection, schedule: Q01DX011 (ip), vehicle: Klucel (hydroxypropylcellulose) (HPC), higher = larger tumour): 70 % of control
- T/C (endpoint: mean tumor weight, dose: 100.0 mg/kg/injection, schedule: Q01DX011 (ip), vehicle: Klucel (hydroxypropylcellulose) (HPC), higher = larger tumour): 93 % of control
- T/C (endpoint: mean tumor weight, dose: 125.0 mg/kg/injection, schedule: Q01DX011 (ip), vehicle: Klucel (hydroxypropylcellulose) (HPC), higher = larger tumour): 101 % of control
- T/C (endpoint: mean tumor weight, dose: 200.0 mg/kg/injection, schedule: Q01DX011 (ip), vehicle: Klucel (hydroxypropylcellulose) (HPC), higher = larger tumour): 72 % of control
- T/C (endpoint: mean tumor weight, dose: 250.0 mg/kg/injection, schedule: Q01DX011 (ip), vehicle: Klucel (hydroxypropylcellulose) (HPC), higher = larger tumour): 100 % of control
- T/C (endpoint: mean tumor weight, dose: 400.0 mg/kg/injection, schedule: Q01DX011 (ip), vehicle: Klucel (hydroxypropylcellulose) (HPC), higher = larger tumour): 55 % of control
- T/C (endpoint: median survival time, dose: 25.0 mg/kg/injection, schedule: Q01DX011 (ip), vehicle: Klucel (hydroxypropylcellulose) (HPC), higher = longer survival): 94 % of control
- T/C (endpoint: median survival time, dose: 50.0 mg/kg/injection, schedule: Q01DX011 (ip), vehicle: Klucel (hydroxypropylcellulose) (HPC), higher = longer survival): 111 % of control
- T/C (endpoint: median survival time, dose: 125.0 mg/kg/injection, schedule: Q01DX011 (ip), vehicle: Klucel (hydroxypropylcellulose) (HPC), higher = longer survival): 93 % of control
- T/C (endpoint: median survival time, dose: 200.0 mg/kg/injection, schedule: Q01DX011 (ip), vehicle: Klucel (hydroxypropylcellulose) (HPC), higher = longer survival): 97 % of control and 112 % of control
- T/C (endpoint: median survival time, dose: 250.0 mg/kg/injection, schedule: Q01DX011 (ip), vehicle: Klucel (hydroxypropylcellulose) (HPC), higher = longer survival): 100 % of control
- T/C (endpoint: median survival time, dose: 400.0 mg/kg/injection, schedule: Q01DX011 (ip), vehicle: Klucel (hydroxypropylcellulose) (HPC), higher = longer survival): 94 % of control

SMILES: CC[C@](O)(C(=O)O)c1cc2n(c(=O)c1CO)Cc1cc3ccccc3nc1-2
- T/C (endpoint: mean tumor weight, dose: 0.06 mg/kg/injection, schedule: Q01DX011 (ip), vehicle: saline, higher = larger tumour): 95 % of control
- T/C (endpoint: mean tumor weight, dose: 0.12 mg/kg/injection, schedule: Q01DX011 (ip), vehicle: saline, higher = larger tumour): 96 % of control
- T/C (endpoint: mean tumor weight, dose: 0.25 mg/kg/injection, schedule: Q01DX011 (ip), vehicle: saline, higher = larger tumour): 101 % of control
- T/C (endpoint: mean tumor weight, dose: 0.5 mg/kg/injection, schedule: Q01DX011 (ip), vehicle: saline, higher = larger tumour): 91 % of control
- T/C [1]: 106 % of control
- T/C (endpoint: median survival time, dose: 0.06 mg/kg/injection, schedule: Q01DX011 (ip), vehicle: saline, higher = longer survival): 105 % of control
- T/C (endpoint: median survival time, dose: 0.12 mg/kg/injection, schedule: Q01DX011 (ip), vehicle: saline, higher = longer survival): 116 % of control
- T/C (endpoint: median survival time, dose: 0.5 mg/kg/injection, schedule: Q01DX011 (ip), vehicle: saline, higher = longer survival): 118 % of control
- T/C (endpoint: median survival time, dose: 1.0 mg/kg/injection, schedule: Q01DX011 (ip), vehicle: saline, higher = longer survival): 102 % of control and 113 % of control and 124 % of control
- T/C [2]: 214 % of control

SMILES: N=c1ccn2c(n1)OC1C(OP(=O)(O)O)C(CO)OC12 (stereo not given)
- T/C (endpoint: mean tumor weight (est.), dose: 12.5 mg/kg/injection, schedule: Q01DX011 (oral), vehicle: water, higher = larger tumour): 79 % of control
- T/C (endpoint: mean tumor weight (est.), dose: 25.0 mg/kg/injection, schedule: Q01DX011 (oral), vehicle: water, higher = larger tumour): 71 % of control
- T/C (endpoint: mean tumor weight (est.), dose: 50.0 mg/kg/injection, schedule: Q01DX011 (oral), vehicle: water, higher = larger tumour): 13 % of control
- T/C (endpoint: mean tumor weight (est.), dose: 100.0 mg/kg/injection, schedule: Q01DX011 (oral), vehicle: water, higher = larger tumour): 12 % of control
- T/C (endpoint: mean tumor weight (est.), dose: 200.0 mg/kg/injection, schedule: Q01DX011 (oral), vehicle: water, higher = larger tumour): 12 % of control
- T/C (endpoint: median survival time, dose: 12.5 mg/kg/injection, schedule: Q01DX011 (oral), vehicle: water, higher = longer survival): 109 % of control
- T/C (endpoint: median survival time, dose: 25.0 mg/kg/injection, schedule: Q01DX011 (oral), vehicle: water, higher = longer survival): 105 % of control
- T/C (endpoint: median survival time, dose: 50.0 mg/kg/injection, schedule: Q01DX011 (oral), vehicle: water, higher = longer survival): 118 % of control
- T/C (endpoint: median survival time, dose: 100.0 mg/kg/injection, schedule: Q01DX011 (oral), vehicle: water, higher = longer survival): 120 % of control
- T/C (endpoint: median survival time, dose: 200.0 mg/kg/injection, schedule: Q01DX011 (oral), vehicle: water, higher = longer survival): 116 % of control

SMILES: COC(=O)C(CSC(c1ccccc1)(c1ccccc1)c1ccccc1)NC(=O)C(CSCc1ccccc1)NC(C)=O (stereo not given) (Ac-Cys(Bn)-Cys(Trt)-OMe; configuration not given here)
- T/C (endpoint: median survival time, dose: 8.0 mg/kg/injection, schedule: Q01DX009 (ip), vehicle: Klucel (hydroxypropylcellulose) (HPC), higher = longer survival): 165 % of control
- T/C (endpoint: median survival time, dose: 32.0 mg/kg/injection, schedule: Q01DX009 (ip), vehicle: Klucel (hydroxypropylcellulose) (HPC), higher = longer survival): 121 % of control
- T/C (endpoint: median survival time, dose: 64.0 mg/kg/injection, schedule: Q01DX009 (ip), vehicle: Klucel (hydroxypropylcellulose) (HPC), higher = longer survival): 121 % of control

SMILES: CCCCCCCCCCCCCCCCCC[N+](C)(C)C (tested in a mixture with another compound)
- T/C [1]: 59 % of control
- T/C (endpoint: mean tumor weight, dose: 2.0 mg/kg/injection, schedule: Q01DX011 (ip), vehicle: saline, higher = larger tumour): 64 % of control
- T/C [2]: 88 % of control

SMILES: Cc1nc(N)sc1CCCl
- T/C (endpoint: mean tumor weight (est.), dose: 10.0 mg/kg/injection, schedule: Q01DX011 (ip), vehicle: saline, higher = larger tumour): 86 % of control
- T/C (endpoint: mean tumor weight (est.), dose: 20.0 mg/kg/injection, schedule: Q01DX011 (ip), vehicle: saline, higher = larger tumour): 105 % of control
- T/C (endpoint: mean tumor weight (est.), dose: 40.0 mg/kg/injection, schedule: Q01DX011 (ip), vehicle: saline, higher = larger tumour): 91 % of control
- T/C (endpoint: median survival time, dose: 10.0 mg/kg/injection, schedule: Q01DX011 (ip), vehicle: saline, higher = longer survival): 98 % of control
- T/C (endpoint: median survival time, dose: 20.0 mg/kg/injection, schedule: Q01DX011 (ip), vehicle: saline, higher = longer survival): 104 % of control
- T/C (endpoint: median survival time, dose: 40.0 mg/kg/injection, schedule: Q01DX011 (ip), vehicle: saline, higher = longer survival): 104 % of control

SMILES: Nc1nc(CCl)nc(Nc2ccccc2)n1
- T/C (endpoint: mean tumor weight (est.), dose: 100.0 mg/kg/injection, schedule: Q01DX011 (ip), vehicle: saline with Tween-80, higher = larger tumour): 61 % of control
- T/C (endpoint: median survival time, dose: 100.0 mg/kg/injection, schedule: Q01DX011 (ip), vehicle: saline with Tween-80, higher = longer survival): 100 % of control
